Test results: patent US20160320368A1, “METHOD AND APPARATUS FOR PREDICTING EFFECTIVE DOSE OR SENSITIVITY OF 5-HYDROXY-1H-IMIDAZOLE-4-CARBOXAMIDE, METHOD FOR DETERMINING AMOUNT OF XANTHOSINE MONOPHOSPHATE, AND TREATMENT AGENT AND METHOD FOR TREATING MYELODYSPLASTIC SYNDROME” (FUJIFILM Corporation, priority 2014, published 2016)

Columns and labels:
Type in all cases: cell-based
[1] = test system: XMP in human myeloid leukemia cells K562; experiment: XMP in human myeloid leukemia cells K562 (LC-MS/MS); settings: 24 hours, non-treated = 100%
Protocol: (§1) A ¾ hydrate of Compound A was used as a test compound.
K562 (available from Riken BioResource Center) was used as a human myeloid leukemia cell.
2×10^7 human myeloid leukemia cells were suspended in a culture flask containing 18 mL of an RPMI1640 medium (manufactured by Life Technologies, Inc.). 2 mL of a PBS solution of the test compound (0 μg/mL, 10 μg/mL, 100 μg/mL, or 1000 μg/mL in terms of Compound A) was added to the flask which was then incubated at 37° C. under 5% CO2 for 24 hours. After centrifugation at 20° C. and 300×g for 3 min, the supernatant was removed and suspended in 10 mL of a PBS solution. Then, after centrifugation at 4° C. and 300×g for 5 min, the supernatant was removed. After stirring with addition of 1000 μL of methanol, 500 μL of ultrapure water was added thereto, followed by further stirring. 600 μL of the reaction solution was divided into each of two tubes, and 400 μL of chloroform was added to each tube. The reaction solution was stirred and then centrifuged at 4° C. and 10000×g for 15 min. 400 μL of the aqueous phase was recovered and added to an ultrafiltration tube, followed by centrifugation at 12° C. and 9200×g for 2 hours. The filtrates were combined and then dried under reduced pressure at 40° C. for 2 hours by using a centrifugal evaporator. After drying, the resulting product was stored in a freezer at −80° C.
(§2) The samples stored in (1) and (2) were returned to room temperature and 40 μL of ultrapure water was added to each sample. The mixture was stirred and centrifuged at 4° C. and 21500×g for 5 min. 35 μL of the supernatant was transferred to a vial. After storage at 4° C., XMP in samples was determined in the LC-MS/MS determination instrument, LC conditions and MS/MS conditions described in Example 3 (3).
(§3) Amounts of XMP (%) were calculated assuming that the XMP value of a non-Compound A treated group (peak area value) is defined as 100%.

[2] = test system: XMP in human myeloid leukemia cells SKM-1; experiment: XMP in human myeloid leukemia cells SKM-1 (LC-MS/MS); settings: 24 hours; for Amount of XMP (%): non-treated = 100%; for Decline rate of XMP: 100−amount of XMP (%)
Protocol: as §1
SKM-1 was used as a human myeloid leukemia cell.
2×10^7 human myeloid leukemia cells were suspended in a culture flask containing 18 mL of an RPMI1640 medium (manufactured by Life Technologies, Inc.). 2 mL of a PBS solution of the test compound (0 μg/mL, 10 μg/mL, 30 μg/mL, 100 μg/mL, 300 μg/mL, or 1000 μg/mL in terms of Compound A) was added to the flask which was then incubated at 37° C. under 5% CO2 for 24 hours. After centrifugation at 20° C. and 300×g for 3 min, the supernatant was removed and suspended in 10 mL of a PBS solution. 10 μL of the suspension was aliquoted and cells were counted using TC10 (manufactured by BioRad). After centrifugation and 300×g for 5 min, the supernatant was removed. After stirring with addition of 1000 μL of methanol, 500 μL of ultrapure water was added thereto, followed by further stirring. 600 μL of the reaction solution was divided into each of two tubes, and 400 μL of chloroform was added to each tube. The reaction solution was stirred and then centrifuged at 4° C. and 10000×g for 15 min. 400 μL of the aqueous phase was recovered and added to an ultrafiltration tube, followed by centrifugation at 12° C. and 9200×g for about 2 hours. The filtrates were pooled in one tube and then dried under reduced pressure at 40° C. for 2 hours by using a centrifugal evaporator. After drying, the resulting product was stored in a freezer at −80° C.
The samples obtained in (1) were returned to room temperature, to each of which 50 μL of 5 mmol/L ammonium formate containing 4 ng/μL of 2′-fluoro-2′-deoxycytidine monophosphate was then added, followed by stirring. 12.5 μL of the supernatant was transferred to a vial, and XMP in the samples was determined in the following determining conditions.
Amounts of XMP (%) were calculated according to the following equation, assuming that the XMP value of a non-Compound A treated group is defined as 100%.
Amount of XMP (%)=((peak area of XMP)/((peak area of 2′-fluoro-2′-deoxycytidine monophosphate)×(number of cells)))/((peak area of XMP of untreated group)/((peak area of 2′-fluoro-2′-deoxycytidine monophosphate of untreated group) (number of cells of untreated group)))×100
The decline rate of XMP (%) was calculated according to the following equation.
Decline rate of XMP (%)=100−amount of XMP (%)

[3] = test system: XMP in blood cells of healthy human; experiment: XMP in blood cells of healthy human (hemolysis, Example 4); settings: 37° C., 8 hours, non-treated = 100%
Protocol: as §1
450 μL of the blood collected from two healthy individuals by heparinized blood collection (Analyte A and Analyte B) was added to each of 1.5 mL tubes, and 50 μL of a PBS solution of the test compound (0 μg/mL, 10 μg/mL, 30 μg/mL, 100 μg/mL, 300 μg/mL, or 1000 μg/mL in terms of Compound A) for each concentration was added to each tube. The reaction mixture was stirred in an incubator at 37° C. for 8 hours. Then, BD Pharm Lyse (555899, manufactured by Becton, Dickinson and Company, Inc.) was added to the blood (2 mL of BD Pharm Lyse was added relative to 0.2 mL of blood). After stirring with a vortex mixer, the reaction solution was protected from light and allowed to stand at room temperature for 15 min. After centrifugation at 20° C. and 1000×g for 5 min, the supernatant was removed and suspended in 10 mL of a PBS solution. After centrifugation at 4° C. and 1000×g for 5 min, the supernatant was removed, and 1000 μL of methanol was added to each tube, followed by stirring. Thereafter, 500 μL of ultrapure water was added thereto, followed by further stirring. 600 μL of the reaction solution was divided into each of two tubes, and 400 μL of chloroform was added to each tube. The reaction solution was stirred and then centrifuged at 4° C. and 10000×g for 15 min. 400 μL of the aqueous phase was recovered and added to an ultrafiltration tube, followed by centrifugation at 12° C. and 9200×g for 2 hours. The filtrates were combined and then dried under reduced pressure at 40° C. for 2 hours by using a centrifugal evaporator. After drying, the resulting product was stored in a freezer at −80° C.
as §2, §3

Compound: NC(=O)c1nc[nH]c1O [Compound A, 5-Hydroxy-1H-imidazole-4-carboxamide]
- Amount of XMP (%) K562 ([1]; Compound A 1 μg/mL): 52%
- Amount of XMP (%) K562 ([1]; Compound A 10 μg/mL): 15%
- Amount of XMP (%) K562 ([1]; Compound A 100 μg/mL): 6%
- Amount of XMP (%) ([2]; SKM-1, Compound A 1 μg/mL): 57%
- Decline rate of XMP ([2]; SKM-1, Compound A 1 μg/mL): 43%
- Amount of XMP (%) ([2]; SKM-1, Compound A 10 μg/mL): 45%
- Decline rate of XMP ([2]; SKM-1, Compound A 10 μg/mL): 55%
- Amount of XMP (%) ([2]; SKM-1, Compound A 100 μg/mL): 17%
- Decline rate of XMP ([2]; SKM-1, Compound A 100 μg/mL): 83%
- Amount of XMP (%) Analyte A ([3]; Compound A 1 μg/mL): 60%
- Amount of XMP (%) Analyte B ([3]; Compound A 1 μg/mL): 51%
- Amount of XMP (%) Analyte A ([3]; Compound A 3 μg/mL): 45%
- Amount of XMP (%) Analyte B ([3]; Compound A 3 μg/mL): 37%
- Amount of XMP (%) Analyte A ([3]; Compound A 10 μg/mL): 37%
- Amount of XMP (%) Analyte B ([3]; Compound A 10 μg/mL): 25%
- Amount of XMP (%) Analyte A ([3]; Compound A 30 μg/mL): 27%
- Amount of XMP (%) Analyte B ([3]; Compound A 30 μg/mL): 18%
- Amount of XMP (%) Analyte A ([3]; Compound A 100 μg/mL): 16%
- Amount of XMP (%) Analyte B ([3]; Compound A 100 μg/mL): 10%
